One series has as its system Male Sprague Dawley rats. Description: Post-surgical pain model (hind paw incision): resting pain, cumulative pain score. The following applies: rat. The class given is in vivo. The procedure: We used a pain model that mimics post surgical pain to assess the efficacy of treatment with anti-NGF antibody 911 (a mouse monoclonal antibody; see Hongo, et al., Hybridoma 19:215-227 (2000). Each experiment involved 16 animals (n=8 per group). The anti-NGF antibody was injected intra peritoneal (i.p.) at various concentratiosn per experiment (35 or 7 milligrams per kilogram) 15 hours pre-incision. The control group received no antibody but was injected i.p. with a saline solution.
Animals. Male Sprague Dawley rats weighting between 220-240 grams were purchased from Harlan (San Diego) and acclimated to the animal facility for one week prior to surgery.
Surgery. The surgery was based on the procedure described by Brennan, et al. Pain 64:493-501 (1996). Animals were anesthetized with a 2% isoflurane in air mixture that was maintained during surgery via a nose cone. The plantar surface of the right hind paw was prepared with a povidone-iodine pad, and a 1-cm central longitudinal incision was made through skin and fascia, starting 0.5 cm from the edge of the heel and extending toward the toes. Measurements were made with a ruler with the foot held in a flexed position. The plantaris muscle was elevated using curved forceps and incised longitudinally. The muscle was incised through its full depth, between the origin and insertion. Bleeding was controlled throughout surgery by pressure applied through a gauze pad. The wound was closed with two mattress sutures (5-0 ethilon black monofilament). These sutures were knotted 5-6 times, with the first knot loosely tied. The wound site was swabbed with bacitracin solution. Animals were allowed to recover and rest in clean cages for two hours or more before behavioral testing began.
Evaluating resting pain. A cumulative pain score was used to assess pain related to weight bearing. Animals were placed on a plastic mesh (grid: 8 mm^2) in clear plastic cages that were elevated on a platform (h: 18″) allowing inspection of the underside of their paws. After a 20 minute acclimation period, weight bearing was assessed on a scale of 0 to 2. A score of 0 was given if the paw was blanched or pressed against the mesh, indicating full weight bearing. A score of 1 was given if the paw was favored with the skin just touching the mesh, with no blanching or indentation of the skin. A score of 2 was given if the paw was held completely off the mesh. Flinching the paw was considered a 2 if the rat was still at rest. […] The sum of 6 scores (0-12) obtained during ½ hour was used to assess pain in the incised foot. Frequency of scores of 2 was also calculated and used to assess the incidence of severe pain or total guarding of the paw by the animal. Each animal was tested 24 hours before surgery (baseline), and 2 h, 24 h, 48 h, and 72 h postoperatively. […]

In the next series the test system is Male Sprague-Dawley rats. Put plainly: Wound healing after dorsal skin incision: proportion of intact wounds. The class given is in vivo. The following applies: rat, 5 mg/kg daily for five days intramuscularly, positive control; p<0.0005 vs saline or 911; FIG. 8. An excerpt: Male Sprague-Dawley rats weighing 250-350 grams were purchased from Harlan (Wisconsin) were brought into the facility and acclimated for at least one week. Animals were anaesthetized with isoflurane and the dorsal surface (back) was shaved and cleaned with povidone iodine followed by an alcohol pad. A 2.5 cm incision through the skin was made on the midline between the scapulae. Bleeding was controlled with pressure with a gauze pad. The wound was closed with four single 4-0 ethilon sutures and the animals were allowed to recover. Animals were then divided into three groups: one group receiving a single does of mouse monoclonal anti-NGF antibody 911 at the time of surgery (1 mg/kg, i.p.); one group receiving Ketorolac (5 mg/kg daily for five days starting the day of surgery, intramuscularly (IMO) as a positive control; and a saline treated control group (negative control). Ketoralac is known to inhibit wound healing. Haws et al. (1996) Ann Plast Surg. 37(2):147-51; Gerstenfeld et al. (2003) J Orthop Res. 21(4):670-5.
The area of the incision was examined and photographed daily starting at day one post surgery. […] Incisions were scored as “intact” if the entire incision remained closed, and “failed” if some or all of the incision re-opened. Results were expressed as the proportion of intact wounds (i.e., the number of intact wounds divided by the total number of animals scored).

Another series has as its target T1, human NGF (human, UniProt P01138 122-239, limits assumed).
T1 construct: also called hNGF; human nerve growth factor
Description: binding affinity; method not given.

T1 sequence (P01138 122-239 limits assumed): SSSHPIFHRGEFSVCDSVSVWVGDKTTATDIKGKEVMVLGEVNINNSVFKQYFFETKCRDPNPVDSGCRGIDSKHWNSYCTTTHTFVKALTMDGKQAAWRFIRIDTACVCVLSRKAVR

As to `COC(=O)[C@@]1(O)C[C@H]2O[C@]1(C)n1c3ccccc3c3c4c(c5c6ccccc6n2c5c31)C(=O)NC4` [K252a], in the series on Male Sprague Dawley rats (in vivo, ip, 4 mg/kg), the “cumulative resting pain score three hours after dosing” value is given as “significantly reduced resting pain” and the “resting pain reduction compared with anti-NGF antibody in similar experiments” value is recorded as “reduced resting pain to the same extent that treatment with anti-NGF antibody did”.
On to `O=C(c1ccccc1)c1ccc2n1CCC2C(=O)O` (stereo not drawn) [ketorolac], for which, in the series on Male Sprague-Dawley rats, the “wound healing (proportion of intact wounds)” value is on record as “significantly inhibited”.

B1: humanized anti-NGF antibody E3 (antibody, V domains shown)
VH: QVQLQESGPGLVKPSETLSLTCTVSGFSLIGYDLNWIRQPPGKGLEWIGIIWGDGTTDYNSAVKSRVTISKDTSKNQFSLKLSSVTAADTAVYYCARGGYWYATSYYFDYWGQGTLVTVS
VL: DIQMTQSPSSLSASVGDRVTITCRASQSISNNLNWYQQKPGKAPKLLIYYTSRFHSGVPSRFSGSGSGTDFTFTISSLQPEDIATYYCQQEHTLPYTFGQGTKLEIKR
In the series with human NGF, B1 yielded a Kd of about 70 pM.

B2: E3: humanized mouse anti-NGF monoclonal antibody; human IgG2a constant region with A330P331 to S330S331, kappa light chain, variable regions SEQ ID NO:1 and 2 (antibody, V domains shown)
VH: B1 VH
VL: DIQMTQSPSSLSASVGDRVTITCRASQSISNNLNWYQQKPGKAPKLLIYYTSRFHSGVPSRFSGSGSGTDFTFTISSLQPEDIATYYCQQEHTLPYTFGQGTKLEIKRT
For the molecule B2, the “resting pain (cumulative pain score) 24 hours after surgery” value in the series with Male Sprague Dawley rats (0.02 mg/kg to 1 mg/kg i.p. 15 hours pre-incision, p<0.05 vs saline, FIG. 4) is “significantly reduced resting pain”; with Male Sprague Dawley rats (0.5 mg/kg i.v. two hours after incision, vs saline, FIG. 5) it was “significantly (p<0.05) reduced resting pain”.

Usually Kd stands for a measure of binding affinity in units of concentration.
